According to patent publication US4686103A, “Method of managing cattle breeding herds” (Iowa State University Research Foundation, Inc., priority 1985, dated 1987):
Read-outs that look alike come from different tables or passages of the source.

What was measured:
[1] = tested on: first-calf crossbred beef heifers; assay: Induction of parturition with relaxin in combination with dexamethasone or cloprostenol; format: in vivo, cattle; settings: for Interval between treatment and calving: mean ± SE
From the text: Crossbred beef heifers were bred by artificial insemination and assigned randomly to treatment groups on day 268 of pregnancy. Blood samples were collected daily for radioimmunoassay of relaxin, progesterone, estrone and 17β-estradiol. Daily measures were obtained of pelvic dimensions and cervical dilation during the prepartum and postpartum periods. On day 272, heifers were given relaxin alone, or in combination with a prostaglandin (e.g., cloprostenol) or a glucocorticoid (e.g., dexamethasone).
On day 272, 10 days before expected parturition, dexamethasone (20 mg) was administered intramuscularly (im) to 30 first-calf crossbred beef heifers. Relaxin (3,000 Units) was administered either at the same time or 24 h later either im or infused into the cervical os. The relaxin was dissolved in phosphate buffer saline (PBS) for im injection and in PBS plus a sterile gel for infusion in the cervical os. Controls received the dexamethasone im plus either 1 ml PBS im or 1 ml PBS-gel vehicle infused into the cervical os. There were 5 heifers assigned randomly to each treatment group.
On day 272, cloprostenol (500 μg) was administered im to 30 first-calf crossbred beef heifers. Relaxin (3,000 Units) wad administered either at the same time or 24 h later either im or infused into the cervical os. The relaxin was dissolved in PBS for injection and in PBS plus sterile gel for infusion into the cervical os. Controls received the cloprostenol im plus either 1 ml PBS im or 1 ml PBS-gel vehicle infused into the cervical os. There were 5 heifers assigned randomly to each treatment group.

[2] = tested on: first- and second-calf beef heifers; assay: Induction of parturition with cloprostenol and relaxin or PBS im; format: in vivo, cattle; settings: for Animals with placenta retained ≥24 h / Ease of calving: day 272; for Interval between treatment and calving: day 272, mean ± SE
Protocol: The effect of cloprostenol and relaxin or PBS given im on induction or parturition was determined in 16 first-calf and 25 second-calf beef heifers. The 41 heifers were given cloprostenol im plus relaxin or PBS im on day 272 of pregnancy.

[3] = tested on: estrogen-primed immature Swiss-Webster mice; settings: unit defined by interpubic ligament formation vs WL1000 standard; cited from earlier work
primiparous beef heifers [4] = assay: Relaxin-induced parturition in beef heifers, intracervical infusion on day 278; format: in vivo, cattle; settings: for Day of calving: day of gestation, mean ± SE
From the text: Forty-seven crossbred beef heifers approaching their first calving were used in this study. All heifers were bred by artificial insemination at estrus (day 0); pregnancy lasts approximately 283 days. Heifers calved at an average age of 25^± 1 months (± standard error, SE). Heifers were maintained under pasture conditions during the spring, summer and fall throughout gestation. Mixed silage (6.8 kg/animal/day) supplemented the hay fed during the winter. During the month before calving, corn (2/3 kg/animal/day) and mixed silage (9.0 kg/animal/day) were fed in addition to the ad libitum supply of hay.
(§1) Beginning on day 270 of gestation, the animals were assigned randomly to one of three treatment groups; gel vehicle-treated controls, Number (N)=16; single relaxin-treated heifers, N=14; and double relaxin-treated heifers, N=17. A daily blood sample (10 ml) was obtained from a jugular vein via a hypodermic needle (16 gauge, 3.8-cm length). The blood was divided equally into two culture tubes containing 0.1 ml of heparinized saline (10 U/ml), maintained on ice, and centrifuged (2,000×g; 4° C.); plasma was decanted into two culture tubes, frozen, and stored at -20° C. for radioimmunoassay of progesterone, estrone (E1), and 17β-estradiol (17β-E2. Pelvic and cervical measurements were obtained immediately after the blood collection except on the day of treatment and postcalving, when these measurements were obtained at 12-hour intervals for 60 hours. Relaxin (1 mg, 3,000 U/mg) was infused 4 cm into the cervical os by a sterile insemination pipette on day 278.
Relaxin was extracted from ovaries of pregnant pigs and purified according to procedures described previously. See Schwabe et al., Rec. Prog. Horm. Res. (1978) 34:123. Purified porcine relaxin (3,000 U/mg) was suspended in 1 ml of vehicle prepared by mixing 0.01 molar phosphate buffer saline (M PBS), pH 7.0, and sterile gel (1 ml volume/volume "KY-4", a surgical lubricating jelly, Johnson and Johnson, Inc., New Brunswick, N.J.). Relaxin or gel vehicle was infused by means of a sterile insemination pipette after the cervical probe was withdrawn. A gloved hand was maintained in the reproductive tract of the heifer to guide the pipette through the cervical sphincter. Relaxin or the gel vehicle then was introduced and deposited 4 cm into the cervix.

primiparous beef heifers [5] = assay: Relaxin effect on pelvic area and cervical dilatation in beef heifers; format: in vivo, cattle; settings: for cervical dilatation increase: within 24 h after administration
Protocol: as §1
Relaxin was extracted from ovaries of pregnant pigs and purified according to procedures described previously. See Schwabe et al., Rec. Prog. Horm. Res. (1978) 34:123. […]
Dilatation of the cervix was measured intravaginally by using a specially designed stainless-steel probe. […] The tips of the rods were expanded by rotating the conical swivel to a uniform resistance against the cervical wall, then withdrawn, and the separation of the rods was measured.
The area of the pelvic canal was calculated from determination of height and width by using a pelvimeter (Lane Manufacturing, Inc., Denver, Colo.) providing internal landmarks. Pelvic height was determined by measuring the linear distance from the midpoint of the dorsal surface of the symphysis pubis to the ventral surface of the prominent junction of the third and fourth sacral segments. Pelvic widths were determined by measuring the greatest linear distance between depression points in the shaft of the ilia at right angles to the vertical measurements. […]

cows = settings: cited from earlier work
[6] = first-calf heifers treated day 272
[7] = first-calf heifers treated day 272, relaxin 3,000 Units, dexamethasone 20 mg or cloprostenol 500 μg
[8] = overall: relaxin with Dex or Clo vs Dex or Clo plus PBS
[9] = relaxin twice (2 × 3,000 U, 12 h apart)

O=C(O)CCC/C=C\CC1C(O)CC(O)C1/C=C/C(O)COc1cccc(Cl)c1 (stereo not shown) [PBS & Clo, cloprostenol]
Animals with placenta retained ≥24 h [1, 6]: 80%
Ease of calving [1, 6]: 40%
Interval between treatment and calving [1, 7]: 54 ± 3.4 h
Interval between treatment and calving ([1]; first-calf heifers treated day 272, relaxin 3,000 Units, dexamethasone 20 mg or cloprostenol 500 μg, listed as cloprostenol plus PBS): 54 h
Animals with placenta retained ≥24 h ([2]; 1st & 2nd calf heifers): 93%
Ease of calving ([2]; 1st & 2nd calf heifers): 63%
Interval between treatment and calving ([2]; 1st & 2nd calf heifers): 45 ± 6 h
Animals with placenta retained ≥24 h ([2]; 1st calf heifers): 80%
Ease of calving ([2]; 1st calf heifers): 40%
Interval between treatment and calving ([2]; 1st calf heifers): 46 ± 5 h
Animals with placenta retained ≥24 h ([2]; 2nd calf heifers): 100%
Ease of calving ([2]; 2nd calf heifers): 75%
Interval between treatment and calving ([2]; 2nd calf heifers): 44 ± 7 h

C[C@@H]1C[C@H]2[C@@H]3CCC4=CC(=O)C=C[C@]4(C)[C@@]3(F)[C@@H](O)C[C@]2(C)[C@@]1(O)C(=O)CO [PBS + Dex, dexamethasone]
Animals with placenta retained ≥24 h [1, 6]: 70%
Ease of calving [1, 6]: 30%
Interval between treatment and calving [1, 7]: 53 ± 2.6 h
Interval between treatment and calving ([1]; first-calf heifers treated day 272, relaxin 3,000 Units, dexamethasone 20 mg or cloprostenol 500 μg, listed as dexamethasone plus PBS): 53 h

relaxin
Animals with placenta retained ≥24 h [1, 8]: 23%
Ease of calving [1, 8]: 62%
Interval between treatment and calving ([1]; overall: relaxin with Dex or Clo vs Dex or Clo plus PBS, 60 first-calf heifers): 34 ± 2.8 h
Interval between treatment and calving ([1]; overall: relaxin with Dex or Clo vs Dex or Clo plus PBS, 60 first-calf heifers, listed as relaxin): 34 h
relaxin potency [3]: 3000 Units/mg
incidence of retained placenta beyond 24 h postpartum (primiparous beef heifers [4]; all relaxin-treated heifers (once or twice)): 0 of 31
Heifers calving within 48 h after treatment, % (primiparous beef heifers [4]; relaxin once (3,000 U)): 45%
Mean interval of days between first treatment and calving (primiparous beef heifers [4]; relaxin once (3,000 U)): 2.5 days
Day of calving (primiparous beef heifers [4]; relaxin once (3,000 U) into cervical os): 280.5 ± 0.8
Heifers calving within 48 h after treatment, No. (primiparous beef heifers [4]; relaxin once (3,000 U), 14 heifers): 6
calved earlier than PBS-gel vehicle-treated heifers, average (primiparous beef heifers [4]; relaxin twice): 3.3 days
Heifers calving within 48 h after treatment, % (primiparous beef heifers [4]; [9]): 88%
Mean interval of days between first treatment and calving (primiparous beef heifers [4]; [9]): 2.0 days
Day of calving (primiparous beef heifers [4]; relaxin twice (2 × 3,000 U, 12 h apart) into cervical os): 278.6 ± 1.2
Heifers calving within 48 h after treatment, No. (primiparous beef heifers [4]; relaxin twice (2 × 3,000 U, 12 h apart), 17 heifers): 15
heifers calving within 24 h after treatment (primiparous beef heifers [4]; relaxin-treated group vs PBS-gel vehicle, P<0.001): more heifers calving
duration of gestation (primiparous beef heifers [4]; relaxin-treated heifers vs PBS-gel vehicle controls, P<0.05): reduced
pelvic area (primiparous beef heifers [5]; 12 h after treatment, all relaxin-treated heifers, P<0.05): marked increases
cervical dilatation increase (primiparous beef heifers [5]; relaxin once): 526%
cervical dilatation increase (primiparous beef heifers [5]; relaxin twice): 634%
duration of pregnancy (cows; 3000 U/mg, four days before expected parturition): did not significantly reduce
cervical dilation (cows; cows, a few days before expected parturition): induce cervical dilation
duration of pregnancy (cows; heifers given relaxin intracervically on three consecutive days): Some shortening of pregnancy
